From patent US8871901B2, “Phage constructs, sequences and antigenic compositions for immunocontraception of animals” (Auburn University, priority 2010, dated 2014)

Tested on: cat oocyte ZP
Assay: Landscape phage library selection on cat oocytes with intact zona pellucida
Type: binding
Settings: 9-mer peptides displayed on landscape phage
Description: Using a strategy similar to the strategy of Examples 2, 5, and 7, 9-mer peptides that bind to cat oocyte ZP were identified using a landscape phage library. In this library, foreign (non-phage) 9-mer peptides are expressed in each pVIII copy over the phage surface resulting in thousands of peptide copies per phage particle. […] Sequences of the identified peptides are AGSSYTQDS (SEQ ID NO:53); EVNGGSADS (SEQ ID NO:54); EAYPGLDWD (SEQ ID NO:55); and VKSEDPSLN (SEQ ID NO:56).

Sequence | binding to cat ZP
AGSSYTQDS (Phage library random peptide insert) [SEQ ID NO:53] | specifically recognize and bind to cat ZP
EAYPGLDWD (Phage library random peptide insert) [SEQ ID NO:55] | specifically recognize and bind to cat ZP
EVNGGSADS (Phage library random peptide insert) [SEQ ID NO:54] | specifically recognize and bind to cat ZP
VKSEDPSLN (Phage library random peptide insert) [SEQ ID NO:56] | specifically recognize and bind to cat ZP

Tested on: pig oocyte ZP
Assay: Landscape phage library selection on pig oocytes with intact zona pellucida, after negative selection on cat, dog and cow oocytes
Type: binding
Settings: 9-mer peptides displayed on landscape phage
Procedure: Using a strategy similar to the strategy of Example 2, 9-mer peptides that bind specifically to pig oocyte ZP were identified using a landscape phage library. In this library, foreign (non-phage) 9-mer peptides are expressed in each pVIII copy over the phage surface resulting in thousands of peptide copies per phage particle. […] Prior to phage display library selection on pig oocytes, negative selection steps on cat, dog and cow oocytes were performed. Sequences of the identified peptides are DPGLSLGDD (SEQ ID NO:41); AYNLGEGDT (SEQ ID NO:42); GQQGLNGDS (SEQ ID NO:43); DVGGGTGTE (SEQ ID NO:44); GPNSSDADS (SEQ ID NO:45); and GEGGYGSHD (SEQ ID NO:46).

Sequence | binding to pig ZP
AYNLGEGDT (Phage library random peptide insert) [SEQ ID NO:42] | specifically recognize and bind to pig ZP
DPGLSLGDD (Phage library random peptide insert) [SEQ ID NO:41] | specifically recognize and bind to pig ZP
DVGGGTGTE (Phage library random peptide insert) [SEQ ID NO:44] | specifically recognize and bind to pig ZP
GEGGYGSHD (Phage library random peptide insert) [SEQ ID NO:46] | specifically recognize and bind to pig ZP
GPNSSDADS (Phage library random peptide insert) [SEQ ID NO:45] | specifically recognize and bind to pig ZP
GQQGLNGDS (Phage library random peptide insert) [SEQ ID NO:43] | specifically recognize and bind to pig ZP

Tested on: dog oocyte ZP
Assay: Landscape phage library selection on dog oocytes with intact zona pellucida
Type: binding
Settings: 9-mer peptides displayed on landscape phage
Description: Using a strategy similar to the strategy of Examples 2 and 5, 9-mer peptides that bind to dog oocyte ZP were identified using a landscape phage library. In this library, foreign (non-phage) 9-mer peptides are expressed in each pVIII copy over the phage surface resulting in thousands of peptide copies per phage particle. […] Sequences of the identified peptides are DDLNSFVND (SEQ ID NO:47); ADLAAFYDD (SEQ ID NO:48); EPGGMVGSD (SEQ ID NO:49); DGVYLVGDD (SEQ ID NO:50); DWSGQDVEN (SEQ ID NO:51); and GMVGSGYDS (SEQ ID NO:52).

Sequence | binding to dog ZP
ADLAAFYDD (Phage library random peptide insert) [SEQ ID NO:48] | specifically recognize and bind to dog ZP
DDLNSFVND (Phage library random peptide insert) [SEQ ID NO:47] | specifically recognize and bind to dog ZP
DGVYLVGDD (Phage library random peptide insert) [SEQ ID NO:50] | specifically recognize and bind to dog ZP
DWSGQDVEN (Phage library random peptide insert) [SEQ ID NO:51] | specifically recognize and bind to dog ZP
EPGGMVGSD (Phage library random peptide insert) [SEQ ID NO:49] | specifically recognize and bind to dog ZP
GMVGSGYDS (Phage library random peptide insert) [SEQ ID NO:52] | specifically recognize and bind to dog ZP
